In data set [1] the test system is receptor of IGF-1. The settings on record: earlier report of the same authors; cited from earlier work. The text has this: Natural and recombinant human IGF-1 proteins (rhIGF-1) are limited in short half-lifes in biological systems and poor tissue retention. […] The C domain of […] in IGF-1 regulates its receptor binding and directly affects the biological activity of IGF-1. Nishida et al. reported that the C-domain of IGF-1 can promote the healing of corneal epithelial wounds. They screened a series of 12-amino acids of GST fusion protein and obtained mutants whose various ...

The nature of data set [2]: Body weight and serum lipid profile. The settings on record: for HDL-C / LDL-C / TG (triglyceride) / Total-C (serum total cholesterol): serum. It counts as in vivo, mouse. An excerpt:
(§1) All animal studies were approved by the Animal Ethics Committee of Nankai University and followed the Tianjin Committee of Use and Care of Laboratory Animals. Male apoE^‑/‑ mice (~22 g bodyweight, ~8 weeks old) were purchased from the Beijing Vital River Laboratory Animal Technology Co., Ltd, which were used to set up the atherosclerotic model, as previously described. ApoE^-/- mice were randomly assigned into six groups (15 per group) and fed with HFD (21% fat plus 0.5% cholesterol; Mediscience, Ltd, Jiangsu, China; Cat No. MD12015A) for 16 weeks. […] At the end of the experiment, all mice were euthanatized by an overdose of 2,2,2-tribromoethanol (640 mg/kg, IP injection), followed by collection of aortas, blood, and peritoneal macrophages. Serum was prepared to determine levels of TNF-α, IL-1β and IL-6 by ELISA kits purchased from ABclonal, Inc. (Wuhan, China). The en face aortas were used to prepare aortic root cross sections followed by determination of en face and sinus lesions with Oil Red O staining. All the images were obtained with a microscope and quantified lesion areas in en face aorta by a computer-assisted image analysis protocol (Photoshop CS6). Necrotic core area, fibrous cap area, expression of MOMA-2, CD68, and α-SMA protein in lesion were determined by H&E and immunofluorescent staining with aortic root cross sections.

Data set [3] deals with HASMCs. As to the kind of experiment: VSMC switch to macrophage-like phenotype (αSMA immunofluorescence, CD68 and SM22α qRT-PCR). In kind it is cell-based, human. The settings on record: n=5. Here is the method: (§2) Human aortic smooth muscle cells (HASMCs) were cultured in a completed DMEM F12 medium (10% fetal bovine serum, 50 μg/mL penicillin, and 50 μg/mL streptomycin). Peritoneal macrophages were cultured in complete RPMI1640 medium (10% fetal bovine serum, 50 μg/mL penicillin, 50 μg/mL streptomycin and 2 mM glutamine). HASMCs or peritoneal macrophages were seeded on a 6-well plate at the density of 3×10^5 cells per well before treatment. […] After treatment, total cellular proteins were extracted from peritoneal macrophages for determination of ABCA1 and ABCG1 by western blot, as previously described. Expression of CD68, SM22α, iNOS, CD206, TNF-α, IL-6, and IL-1β mRNA in HASMCs or macrophages was determined by quantitative real-time polymerase chain reaction (qRT-PCR) with total RNA extracted from cells and the primers listed in Table 1 and normalized to GAPDH mRNA levels in the corresponding samples.

Data set [4] relates to apoE-/- mice. Nature of the data set: Inflammation and macrophage phenotype in vivo (aortic root immunofluorescence, serum ELISA, aorta qRT-PCR). On the set-up: species or system mouse.
From the text: as §1

Data set [5] concerns atherosclerotic lesions in apoE-/- mice. Nature of the data set: Atherosclerotic lesion formation, Oil Red O staining. In kind it is in vivo, mouse. The settings on record: high-fat diet 16 weeks, s.c. 100 μL of 1 μM weekly, n=15.
Experimental: Male apoE^‑/‑ mice (~22 g bodyweight, ~8 weeks old) were purchased from the Beijing Vital River Laboratory Animal Technology Co., Ltd, which were used to set up the atherosclerotic model, as previously described[66]. ApoE^-/- mice were randomly assigned into six groups (15 per group) and fed with HFD (21% fat plus 0.5% cholesterol; Mediscience, Ltd, Jiangsu, China; Cat No. MD12015A) for 16 weeks. ApoE^-/- mice in the different groups were subcutaneously injected with either saline (100 µL, n=15), IGF-1 protein (1 μM, 100 μL, n=15), H1 (1 μM, 100 μL, n=15), H2 (1 μM, 100 μL, n=15), H3 (1 μM, 100 μL, n=15) or H4 (1 μM, 100 μL, n=15) weekly. At the end of the experiment, all mice were euthanatized by an overdose of 2,2,2-tribromoethanol (640 mg/kg, IP injection), followed by collection of aortas, blood, and peritoneal macrophages. […] The en face aortas were used to prepare aortic root cross sections followed by determination of en face and sinus lesions with Oil Red O staining. All the images were obtained with a microscope and quantified lesion areas in en face aorta by a computer-assisted image analysis protocol (Photoshop CS6).
For data set [6], the system named is peritoneal macrophage. Nature of the data set: Cholesterol efflux of peritoneal macrophage. To be noted: n=5, Figures S14 and S15B. In kind it is cell-based, mouse. The protocol: page 8: Figure S14. Cholesterol efflux of peritoneal macrophage were assessed after treatment as indicated, n=5. […] Figure S15. Effects of Npx and IGF-1 mimetic peptide on inflammation and cholesterol efflux. (A) qRT-PCR analysis of TNFα and IL-1β in macrophage after indicated treatment, n=5. (B) Cholesterol efflux of peritoneal macrophage were assessed after treatment as indicated, n=5. […]

Data set [7] has as its system peritoneal macrophages from apoE-/- mice. As to the kind of experiment: Foam cell formation, Oil Red O staining after ox-LDL. It counts as cell-based, mouse. To be noted: same molar concentration, after exposure to ox-LDL, >10 lipid droplets per cell, n=5. Here is the method:
Human aortic smooth muscle cells (HASMCs) were cultured in a completed DMEM F12 medium (10% fetal bovine serum, 50 μg/mL penicillin, and 50 μg/mL streptomycin). Peritoneal macrophages were cultured in complete RPMI1640 medium (10% fetal bovine serum, 50 μg/mL penicillin, 50 μg/mL streptomycin and 2 mM glutamine). HASMCs or peritoneal macrophages were seeded on a 6-well plate at the density of 3×10^5 cells per well before treatment. […] To assess foam cell formation in vitro, peritoneal macrophages collected from apoE^-/- mice were plated on cover slips in 12-well plates. Subsequently, induction and determination of foam cells was conducted as previously described.

The test system of data set [8] is peritoneal macrophages. As to the kind of experiment: Macrophage polarization and LPS-induced inflammation in vitro. In kind it is cell-based, mouse. Here is the method: as §2
Data set [9] has as its system ABCA1 and ABCG1 in peritoneal macrophages. As to the kind of experiment: ABCA1 and ABCG1 expression by western blot. It counts as cell-based, mouse. To be noted: 10 nM overnight, versus GAPDH, n=5. Here is the method:
as §2
Background: Immunoblotting shows a protein as a band on a membrane.

Data set [10] has as its target recombinant human Insulin-like Growth Factor-I Receptor (rhIGF-1R) (Homo sapiens, UniProt P08069). As to the kind of experiment: Microscale thermophoresis binding to rhIGF-1R. To be noted: for dissociated constant (KD) with rhIGF-1R: microscale thermophoresis, NT-647 labelled rhIGF-1R, PBS with 0.05% Tween 20 pH 7.4, compound 0.054 nM to 2 μM. The text has this:
(§3) The transparency of the prepared hydrogel in the visible light range of 380 nm-780 nm is detected by UV-Vis spectroscopy (Lambda 35 UV/Vis Spectrometer, Perkin-Elmer). […] Therefore, we conducted microscale thermophoresis experiments to determine their binding affinity to recombinant human Insulin-like Growth Factor-I Receptor (rhIGF-1R).
rhIGF-1R was labeled with the fluorescent dye NT-647 using a Monolith NT™ Protein Labelling Kit (cysteine-reactive) (NanoTemper Technologies, Germany). PBS buffer containing 0.05% Tween 20 (pH 7.4) was used as the assay buffer. For the interaction experiments of fluorescent proteins with Compound 1, 2, 3or 4, the concentration of labeled proteins were kept constant, while the concentration of Compound 1, 2, 3or 4 varied from 0.054 nM to 2 μM. Then, the solution of fluorescent proteins was mixed with solutions containing different concentrations of Compound 1, 2, 3or 4 at 1:1 volume ratio. After a short incubation time, the samples were loaded into MST NT.115 standard glass capillaries and the analysis was performed using the Monolith NT.115 system (NanoTemper Technologies, Germany). The KD value was calculated using the NanoTemper software package.
Background: MST reads how a fluorescent partner responds to local heating, with and without ligand.

The nature of data set [11]: Rheometer mechanical properties of hydrogels. It counts as physicochemical. To be noted: hydrogel 1.0 wt%. Here is the method: We then used a rheometer to characterize the mechanical properties of the hydrogels. […] The storage modulus (G') of the four hydrogels was approximately an order of magnitude higher than their loss modulus (G''), which indicated the formation of true gels. ApoE^-/- mice were then subcutaneously (s.c.) injected with 100 μL of the different hydrogels or natural IGF-1 protein solution per week and simultaneously fed a high-fat diet for 16 weeks. Atherosclerotic lesion formation was assessed after 16 weeks.

The nature of data set [12]: TEM of nanofibers in hydrogels. In kind it is physicochemical. To be noted: hydrogel in PBS, 0.5 wt%.
Data set [13] in a line: Transparency of hydrogels by UV-Vis spectroscopy. It counts as physicochemical. The settings on record: visible light range 380 nm-780 nm, hydrogel in PBS pH 7.4, 0.5 wt%.
From the text: as §3

Where [14] appears, read: 10 nM with ox-LDL 50 µg·mL^-1 overnight, qRT-PCR, versus ox-LDL-treated cells.
[15] abbreviates: double immunofluorescence staining with MOMA2, n=15.
Setting [16] is: male apoE-/- mice, HFD 16 weeks, s.c. weekly, mean ± SD, n=15.
Setting [17] is: peritoneal macrophages, LPS 100 ng·mL^-1 2 h then 10 nM overnight, immunofluorescent staining, versus control, n=5.

Usually Kd stands for the equilibrium constant for the complex coming apart.

Where a SMILES comes first, the peptide text is derived from it. [ ]: non-standard residue; d: D form. The star is where a group is joined. Naproxen = COc1ccc2cc([C@H](C)C(=O)*)ccc2c1; Acetyl(2-naphthyl) = O=C(Cc1ccc2ccccc2c1)*

Sequence of recombinant human Insulin-like Growth Factor-I Receptor (rhIGF-1R) (P08069 31-1367): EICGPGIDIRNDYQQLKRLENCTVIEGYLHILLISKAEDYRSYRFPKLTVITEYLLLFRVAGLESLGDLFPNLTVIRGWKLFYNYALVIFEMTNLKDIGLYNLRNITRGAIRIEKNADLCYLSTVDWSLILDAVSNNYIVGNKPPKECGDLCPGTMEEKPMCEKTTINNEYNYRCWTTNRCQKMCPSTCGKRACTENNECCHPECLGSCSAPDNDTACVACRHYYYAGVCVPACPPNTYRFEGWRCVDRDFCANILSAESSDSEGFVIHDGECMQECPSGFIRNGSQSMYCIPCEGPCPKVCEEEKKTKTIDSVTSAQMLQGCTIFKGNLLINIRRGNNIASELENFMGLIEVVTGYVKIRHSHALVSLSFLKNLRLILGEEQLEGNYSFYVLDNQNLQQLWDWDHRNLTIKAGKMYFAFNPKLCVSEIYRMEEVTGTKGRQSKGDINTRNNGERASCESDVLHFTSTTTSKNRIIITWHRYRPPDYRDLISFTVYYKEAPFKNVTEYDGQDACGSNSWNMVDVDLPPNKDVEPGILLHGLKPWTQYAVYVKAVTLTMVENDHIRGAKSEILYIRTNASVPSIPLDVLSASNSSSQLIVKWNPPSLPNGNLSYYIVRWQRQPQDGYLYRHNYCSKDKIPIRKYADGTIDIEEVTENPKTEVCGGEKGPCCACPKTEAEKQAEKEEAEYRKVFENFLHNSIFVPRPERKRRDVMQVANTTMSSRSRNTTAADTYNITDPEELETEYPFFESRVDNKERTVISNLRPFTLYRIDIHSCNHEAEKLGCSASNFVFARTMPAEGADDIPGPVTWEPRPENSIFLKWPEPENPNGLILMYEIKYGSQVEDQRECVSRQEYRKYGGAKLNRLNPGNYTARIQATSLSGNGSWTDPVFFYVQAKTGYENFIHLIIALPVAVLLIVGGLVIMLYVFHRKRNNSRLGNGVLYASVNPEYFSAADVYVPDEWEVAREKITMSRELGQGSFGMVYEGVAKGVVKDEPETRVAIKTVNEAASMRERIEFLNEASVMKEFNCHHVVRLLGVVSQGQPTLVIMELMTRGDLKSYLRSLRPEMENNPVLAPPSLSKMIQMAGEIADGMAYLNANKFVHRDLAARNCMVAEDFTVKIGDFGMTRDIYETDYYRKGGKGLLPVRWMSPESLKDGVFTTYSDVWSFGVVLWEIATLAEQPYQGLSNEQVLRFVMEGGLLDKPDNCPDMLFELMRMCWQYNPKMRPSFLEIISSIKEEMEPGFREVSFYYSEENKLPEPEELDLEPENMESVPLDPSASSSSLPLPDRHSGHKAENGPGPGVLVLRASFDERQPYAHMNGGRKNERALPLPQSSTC

For “Nap-FFGGYGSSSRRAPQT [self-assembling peptide reported earlier by the authors]”, the “binding affinity to the receptor of IGF-1” value in data set [1] is reported as “high binding affinity”.

`COc1ccc2cc([C@H](C)C(=O)N[C@@H](Cc3ccccc3)C(=O)N[C@@H](Cc3ccccc3)C(=O)NCC(=O)N[C@@H](CO)C(=O)N[C@@H](CO)C(=O)N[C@@H](CO)C(=O)N[C@@H](CCCNC(=N)N)C(=O)O)ccc2c1` [Compound H2, Npx-FFGSSSR] (Naproxen-FFGSSSR-OH) came in with a BW in [2] (mouse, in vivo, sc, SD) of 25.55 ± 2.31 g.

As to “Insulin-like growth factor (IGF)-1 [IGF-1]”, the “α-SMA expression in VSMCs” value in data set [3] (10 nM overnight, immunofluorescent staining, versus control) is “expressed more α-SMA”. In [3] (setting [14]), the “CD68 expression in VSMCs” value was “less CD68” and the “SM22α expression in VSMCs” value is on record as “more SM22α”. Also, in data set [4] (setting [15]), the “Arg1 expression in aortic root macrophages in vivo” value is listed as “induced the expression of Arg1” and the “CCR7 expression in aortic root macrophages in vivo” value is listed as “inhibited the expression of CCR7”. Besides, in data set [4] (qRT-PCR of TNF-α and IL-6, n=8), the “expression of proinflammatory cytokines in aortas” value is given as “reduced the expression of these cytokines”. Also, in data set [5], the “decrease in plaque size at the aortic root” value was ~ 53% and the “reduction in lesion area, en face aorta” value was ~ 42%. Moreover, in [6], the “cholesterol efflux from peritoneal macrophage” value was “more effective than Npx”. In data set [7], the “number of foam cells” value is given as 22.0%. Also, in data set [2] (setting [16]), the HDL-C was found to be 2.35 ± 0.89 mM, the LDL-C worked out at 4.08 ± 1.42 mM, the “TG (triglyceride)” value is 0.51 ± 0.13 mM and the “Total-C (serum total cholesterol)” value stood at 15.47 ± 2.76 mM. The compound further gave a BW in data set [2] (mouse, in vivo, sc, SD) of 25.04 ± 1.83 g. In [8] (setting [17]), the “Arg1 expression in macrophages in vitro” value is on record as “more Arg1” and the “CCR7 expression in macrophages in vitro” value is on record as “expressed less CCR7”. Further, the “expression of ABCA1 and ABCG1 in macrophages” value in data set [9] was “significantly enhanced expression”.

Consider `N=C(N)NCCC[C@H](NC(=O)[C@H](CO)NC(=O)[C@H](CO)NC(=O)[C@H](CO)NC(=O)CNC(=O)[C@H](Cc1ccccc1)NC(=O)[C@H](Cc1ccccc1)NC(=O)Cc1ccc2ccccc2c1)C(=O)O` [Compound H3, Nap-FFGSSSR] ({Acetyl(2-naphthyl)}-FFGSSSR-OH), for which, in [10], the Kd came to 0.23 µM. In [2] (setting [16]), this compound returned a BW of 26.79 ± 1.77 g.

In data set [2] (mouse, in vivo, sc, SD), `COc1ccc2cc([C@H](C)C(=O)N[C@H](Cc3ccccc3)C(=O)N[C@H](Cc3ccccc3)C(=O)NCC(=O)N[C@@H](CO)C(=O)N[C@@H](CO)C(=O)N[C@@H](CO)C(=O)N[C@@H](CCCNC(=N)N)C(=O)O)ccc2c1` [Compound H1, Npx-^DF^DFGSSSR] (Naproxen-[dF][dF]GSSSR-OH) gave a BW of 26.49 ± 2.14 g.

Take “Nap-FFGSRSS [Compound H4, control without naproxen and with a scrambled tetrapeptide of SSSR]”: the “storage modulus (G')” value in [11] came out at 100 Pa. In addition, the “diameter of entangled nanofibers” value in data set [12] is listed as about 17.3 nm. Moreover, the “dissociated constant (KD) with rhIGF-1R” value in [10] is reported as “Non KD”. Also, the “dissociated constant (KD) with rhIGF-1R” value in data set [10] (listed as Compound 4) was “no binding at all”. For the same compound, the “number of foam cells” value in data set [7] is recorded as “almost no decrease”. Moreover, in data set [2] (setting [16]), the HDL-C is 2.34 ± 0.76 mM, the LDL-C was 4.45 ± 1.23 mM, the “TG (triglyceride)” value came to 0.52 ± 0.08 mM and the “Total-C (serum total cholesterol)” value worked out at 16.63 ± 2.05 mM. Besides, the BW in data set [2] (mouse, in vivo, sc, SD) came out at 26.81 ± 2.06 g. The “transparency (mean transmittance) of hydrogel” value in data set [13] came out at 71.08%.

For the compound `COc1ccc2cc([C@H](C)C(=O)O)ccc2c1` [Npx, naproxen, reference compound], in data set [8] (macrophage in presence of LPS, qRT-PCR of TNF and IL-1, n=5), the “LPS-induced inflammation, components compared (Figure S15A)” value was “partly blocked LPS-induced inflammation”.

Values taken from paper PMC7481406, “Bifunctional supramolecular nanofiber inhibits atherosclerosis by enhancing plaque stability and anti-inflammation in apoE^-/- mice” (Theranostics, 2020).
